Source: patent US20250312323A1 (Cavion, Inc., priority 2018, published 2025)

Test system: patients with essential tremor
Experiment: T-CALM: treatment-emergent adverse events, discontinuations, dosage reductions
Type: in vivo, human
Description: T-CALM employed the following dose titration scheme: Week 1 at 4 mg BID (8 mg/day), Week 2 at 8 mg BID (16 mg/day) and Weeks 3 & 4 at 10 mg BID (20 mg/day). […] Adverse Events were coded using MedDRA V20.0. Only treatment emergent adverse events with an onset date and time after the initiation of study drug until 30 days after discontinuation of drug were reported. For subjects who experience the same coded event more than once, a single event was presented. Adverse events were attributed to a study week based on the onset date, i.e. events that started on or after Visit 1 and prior to Visit 2 were classified as Study Week 1.
Adverse events are characterized by maximum severity, drug-related adverse events, serious adverse events and adverse events leading to discontinuation of study.
Safety procedures involved collection of all TEAEs (treatment-emergent adverse events) coded into the Medical Dictionary for Regulatory Activities (MedDRA) version 20. Adverse events were classified by maximum severity, drug-related adverse events, serious adverse events, and adverse events leading to patient discontinuation.

CC(C)c1ccc(CC(=O)N[C@H](C)c2ccc(OCC(F)(F)F)cn2)cc1 [CX-8998]
AE Skin and Subcutaneous Tissue Disorders, percent of subjects (onset in study week 1): (2%) | AE Vascular Disorders, number of subjects (onset in study week 1): 0 | AE Any Event, percent of subjects (onset in study week 2): (21%) | AE Central Nervous System Disorders, number of subjects (onset in study week 2): 4 | AE Central Nervous System Disorders, percent of subjects (onset in study week 2): (8%) | AE Ear and Labyrinth Disorders, number of subjects (onset in study week 2): 0 | AE Eye Disorders, number of subjects (onset in study week 2): 0 | AE Gastrointestinal Disorders, number of subjects (onset in study week 2): 1 | AE Gastrointestinal Disorders, percent of subjects (onset in study week 2): (2%) | AE Infections and Infestations, number of subjects (onset in study week 2): 2 | AE Infections and Infestations, percent of subjects (onset in study week 2): (4%) | AE Investigations, number of subjects (onset in study week 2): 1 | AE Investigations, percent of subjects (onset in study week 2): (2%) | AE Metabolism and Nutrition Disorders, number of subjects (onset in study week 2): 0 | AE Musculoskeletal and Connective Tissue Disorders, number of subjects (onset in study week 2): 1 | AE Musculoskeletal and Connective Tissue Disorders, percent of subjects (onset in study week 2): (2%) | AE Neoplasms, number of subjects (onset in study week 2): 0 | AE Psychiatric Disorders, number of subjects (onset in study week 2): 2 | AE Psychiatric Disorders, percent of subjects (onset in study week 2): (4%) | AE Skin and Subcutaneous Tissue Disorders, number of subjects (onset in study week 2): 0 | AE Vascular Disorders, number of subjects (onset in study week 2): 1 | AE Vascular Disorders, percent of subjects (onset in study week 2): (2%) | AE Any Event, percent of subjects (onset in study week 3): (17%) | AE Central Nervous System Disorders, number of subjects (onset in study week 3): 1 | AE Central Nervous System Disorders, percent of subjects (onset in study week 3): (2%) | AE Ear and Labyrinth Disorders, number of subjects (onset in study week 3): 0 | AE Eye Disorders, number of subjects (onset in study week 3): 0 | AE Gastrointestinal Disorders, number of subjects (onset in study week 3): 1 | AE Gastrointestinal Disorders, percent of subjects (onset in study week 3): (2%) | AE Infections and Infestations, number of subjects (onset in study week 3): 2 | AE Infections and Infestations, percent of subjects (onset in study week 3): (4%) | AE Injury, Poisoning and Procedural Complications, percent of subjects (onset in study week 3): (2%) | AE Investigations, number of subjects (onset in study week 3): 1 | AE Investigations, percent of subjects (onset in study week 3): (2%) | AE Metabolism and Nutrition Disorders, number of subjects (onset in study week 3): 1 | AE Metabolism and Nutrition Disorders, percent of subjects (onset in study week 3): (2%) | AE Musculoskeletal and Connective Tissue Disorders, number of subjects (onset in study week 3): 1 | AE Musculoskeletal and Connective Tissue Disorders, percent of subjects (onset in study week 3): (2%) | AE Neoplasms, number of subjects (onset in study week 3): 0 | AE Psychiatric Disorders, number of subjects (onset in study week 3): 3 | AE Psychiatric Disorders, percent of subjects (onset in study week 3): (6%) | AE Respiratory, Thoracic and Mediastinal Disorders, percent of subjects (onset in study week 3): (2%) | AE Skin and Subcutaneous Tissue Disorders, number of subjects (onset in study week 3): 0 | AE Vascular Disorders, number of subjects (onset in study week 3): 0 | AE Any Event, percent of subjects (onset in study week 4): (4%) | AE Central Nervous System Disorders, number of subjects (onset in study week 4): 0 | AE Ear and Labyrinth Disorders, number of subjects (onset in study week 4): 0 | AE Eye Disorders, number of subjects (onset in study week 4): 0 | AE Gastrointestinal Disorders, number of subjects (onset in study week 4): 0 | AE Infections and Infestations, number of subjects (onset in study week 4): 0 | AE Investigations, number of subjects (onset in study week 4): 1 | AE Investigations, percent of subjects (onset in study week 4): (2%) | AE Metabolism and Nutrition Disorders, number of subjects (onset in study week 4): 1 | AE Metabolism and Nutrition Disorders, percent of subjects (onset in study week 4): (2%) | AE Musculoskeletal and Connective Tissue Disorders, number of subjects (onset in study week 4): 0 | AE Neoplasms, number of subjects (onset in study week 4): 0 | AE Psychiatric Disorders, number of subjects (onset in study week 4): 2 | AE Psychiatric Disorders, percent of subjects (onset in study week 4): (4%) | AE Skin and Subcutaneous Tissue Disorders, number of subjects (onset in study week 4): 0 | AE Vascular Disorders, number of subjects (onset in study week 4): 0 | AE Any Event, percent of subjects (onset in study week >4): (2%) | AE Central Nervous System Disorders, number of subjects (onset in study week >4): 1 | AE Central Nervous System Disorders, percent of subjects (onset in study week >4): (2%) | AE Ear and Labyrinth Disorders, number of subjects (onset in study week >4): 0 | AE Eye Disorders, number of subjects (onset in study week >4): 0 | AE Gastrointestinal Disorders, number of subjects (onset in study week >4): 0 | AE Infections and Infestations, number of subjects (onset in study week >4): 0 | AE Investigations, number of subjects (onset in study week >4): 0 | AE Metabolism and Nutrition Disorders, number of subjects (onset in study week >4): 0 | AE Musculoskeletal and Connective Tissue Disorders, number of subjects (onset in study week >4): 0 | AE Neoplasms, number of subjects (onset in study week >4): 0 | AE Psychiatric Disorders, number of subjects (onset in study week >4): 0 | AE Skin and Subcutaneous Tissue Disorders, number of subjects (onset in study week >4): 0 | AE Vascular Disorders, number of subjects (onset in study week >4): 0
